The record followed here is patent publication US20210330774A1, “HERV-K-DERIVED ANTIGENS AS SHARED TUMOR ANTIGENS FOR ANTI-CANCER VACCINE” (CENTRE LEON BERARD, priority 2018, published 2021).

Assay type in all cases: cell-based, human
Assay [1] has as its system CD8+ T cells. Put plainly: Dextramer assay after 12-day peptide stimulation of PBMCs from HLA-A2 donors. The note with it: for dextramer positive CD8+ T cells: representative plot, day 12, peptide-stimulated PBMCs; for increase in dextramer positive CD8+ T cells, peptide stimulated versus non stimulated: FIG. 4B, 12 different donors, day 12; for ability to elicit a specific CD8+ T cell response: summary statement.

The test system of assay [2] is T2 cells pulsed with HERV peptide. Put plainly: Cytotoxicity assay with T2 cells contact (intracellular IFN-γ of CD8+ T cells, FACS). The note with it: for IFN-γ production, percentage of CD8+ T cells (in median): FIG. 3B, 5 different donors, day 12, T2 cells pulsed with cognate peptide; for IFN-γ production, number of CD8+ T cells: FIG. 5B, 12 different donors, day 12. As to the method: On day 12 of PBMCs culture, T2 cells were washed in RPMI and resuspended into AIM-V medium (Thermo Fisher Scientific). T2 (SD Cell line) are a lymphoblast cell line deficient in the transporter associated with antigen processing (TAP) protein, and therefore cannot present endogenous peptides on the class I MHC, but can be used to monitor the CTL response to an exogenous antigen of interest in a non-competitive environment. T2 cells were first pulsed with HERV peptide by adding 10 μg/mL of corresponding peptide to 2M T2 cell for 2 hours at 37° C. PBMCs were pooled and counted and put in co-culture with corresponding T2 cells at a respective concentration of 1:5 into a new 96 U-well plate.
After 4 hours of incubation at 37° C., cells from co-culture were washed and pooled in V-well plate according to their staining condition in FACS buffer. Zombie NIR (Biolegend) was used at 1/400 to assess viability. Anti CD3 (PercP, Biolegend) and anti CD8 (FITC, Beckman coulter) antibodies were added 1/10 per condition and left for 25 minutes at 4° C. Cells were washed again and then fixed with fixation/permeabilization solution kit (Invitrogen, Carlasbad, USA) according to the manufacturer's instructions for 15 minutes at room temperature. Cells were washed two times in FACS buffer and kept at 4° c.
On day 13, cells were permeabilized with the permeabilization solution kit (Invitrogen) for 5 minutes at room temperature and anti IFN-γ (PE, Biolegend) antibody was added 1/20 to the solution for additional 25 minutes at 4° C. Cells were washed two times and resuspended in 350 μL of FACS buffer before FACS analysis. Analysis was performed on FACS Fortessa (BD) to explore the specific cytotoxicity and degranulation against T2 cells expressing HERV sequences.

Assay [3] has as its system T2 cells pulsed with the cognate peptide. Description: ELISPOT for IFN-γ and Granzyme-β of peptide stimulated PBMCs co-cultured with T2 cells. Conditions: 2.10^5 cells per well, ratio 10:1 with T2 cells, revealed after 24h. As to the method: C. Representative histograms of the number of IFN-γ+ and Granzyme-I3+ spots after 12 days stimulation and following 24h of contact with T2 cells pulsed with the cognate peptide.
Peptide stimulated PBMCs after the 12-day culture were used to perform an ELISPOT assay for IFN-γ and Granzyme-β (FIG. 2C). 2.10^5 cells per well were put in co-culture with T2 cell specific for the peptide of interest in a ratio 10:1.

In assay [4] the test system is CD8+ T cells expanded from TNBC and ovarian tumor dilacerate. Put plainly: Dextramer staining of tumor infiltrated lymphocytes (TILs) from TNBC and ovarian cancer. The note with it: day 14, FIG. 7. As for the experimental part: Tumors were dilacerated in small pieces and digested with collagenase IV and DNAse for 45 minutes. The cells obtained were resuspended in 5% human serum RPMI and distributed in 96 well (5.10^4 cells per well). Anti-CD3/CD28 microbeads (Miltenyi biotech) were added to the well in a ratio of 1:4 with cells in the presence of IL-2 (F.C. 100 IU/ml). TILs were cultured for 14 days by changing medium at day 5, 7, 9 and 12 and the number of the cells was adapted to have 0.5×10^6 cells/ml.
At day 14 a dextramer staining was performed (see dextramer assay paragraph) for the 7 peptides of interest (P1 to P7—SEQ ID NO: 1 to 7) and dextramer specific CD8+ T cells were identified by FACS analysis in TNBC (FIG. 7A) and ovarian cancer (FIG. 7B).

Take FLQFKTWWI (HERV epitope) [P1]: the “dextramer positive CD8+ T cells” value in assay [1] (FIG. 4A) amounted to 0.63%. Further, in assay [1], the “increase in dextramer positive CD8+ T cells, peptide stimulated versus non stimulated” value was “significant increase” and the “ability to elicit a specific CD8+ T cell response” value (“ability” for short) is listed as “able to elicit a specific CD8+ T cell response”. For the same sequence, in assay [2], the “IFN-γ production, percentage of CD8+ T cells (in median)” value (“IFN-γ production, percentage” below) was about 10% and the “IFN-γ production, number of CD8+ T cells” value was “significant number”. In assay [3], the “specific IFN-γ and Granzyme-β spots” value is “specific IFN-γ and Granzyme-β spots”. The “frequency of specific CD8+ T cells in the tumors” value in assay [4] is recorded as “more frequently represented”.
For the sequence AMIPKDWPL (HERV epitope 5) [P5], in assay [1] (FIG. 2A), the “dextramer positive CD8+ T cells” value is 34.2%. In assay [1], the “ability” value is given as “able to elicit a specific CD8+ T cell response”.
YAMSNLFSI (HERV epitope 6) [P6]: in assay [1], the “increase in dextramer positive CD8+ T cells, peptide stimulated versus non stimulated” value was “significant increase” and the “ability” value is on record as “able to elicit a specific CD8+ T cell response”. Besides, the “IFN-γ production, number of CD8+ T cells” value in assay [2] is on record as “moderate number”. In addition, the “specific IFN-γ and Granzyme-β spots” value in assay [3] was “specific IFN-γ and Granzyme-β spots”. Further, in assay [4], the “frequency of specific CD8+ T cells in the tumors” value was “more frequently represented”.
Regarding RLIPYDWEI (epitope 2) [P2], in assay [1], the “increase in dextramer positive CD8+ T cells, peptide stimulated versus non stimulated” value is “slightly” and the “ability” value is recorded as “able to elicit a specific CD8+ T cell response”. Moreover, in assay [2], the “IFN-γ production, percentage” value is recorded as about 5% and the “IFN-γ production, number of CD8+ T cells” value is “significant number”.
With SMDDQLNQL (HERV epitope 7) [P7], the “ability” value in assay [1] is recorded as “able to elicit a specific CD8+ T cell response”.
In the case of YLSFIKILL (HERV epitope 4) [P4], in assay [1], the “increase in dextramer positive CD8+ T cells, peptide stimulated versus non stimulated” value is on record as “significant increase” and the “ability” value is recorded as “able to elicit a specific CD8+ T cell response”.
KLIDCYTFL (epitope 3) [P3]: in assay [1], the “increase in dextramer positive CD8+ T cells, peptide stimulated versus non stimulated” value is “slightly” and the “ability” value is “able to elicit a specific CD8+ T cell response”. In addition, in assay [2], the “IFN-γ production, percentage” value was about 5% and the “IFN-γ production, number of CD8+ T cells” value is “significant number”.
